Tests used:
[1] = target: myosin V (S1) 6IQ construct (Gallus gallus, UniProt Q02440); format: binding
[2] = target: myosin V (S1) 1IQ construct (Gallus gallus, UniProt Q02440); format: binding
Chain of myosin V (S1) 1IQ construct (Q02440 whole entry, looked up): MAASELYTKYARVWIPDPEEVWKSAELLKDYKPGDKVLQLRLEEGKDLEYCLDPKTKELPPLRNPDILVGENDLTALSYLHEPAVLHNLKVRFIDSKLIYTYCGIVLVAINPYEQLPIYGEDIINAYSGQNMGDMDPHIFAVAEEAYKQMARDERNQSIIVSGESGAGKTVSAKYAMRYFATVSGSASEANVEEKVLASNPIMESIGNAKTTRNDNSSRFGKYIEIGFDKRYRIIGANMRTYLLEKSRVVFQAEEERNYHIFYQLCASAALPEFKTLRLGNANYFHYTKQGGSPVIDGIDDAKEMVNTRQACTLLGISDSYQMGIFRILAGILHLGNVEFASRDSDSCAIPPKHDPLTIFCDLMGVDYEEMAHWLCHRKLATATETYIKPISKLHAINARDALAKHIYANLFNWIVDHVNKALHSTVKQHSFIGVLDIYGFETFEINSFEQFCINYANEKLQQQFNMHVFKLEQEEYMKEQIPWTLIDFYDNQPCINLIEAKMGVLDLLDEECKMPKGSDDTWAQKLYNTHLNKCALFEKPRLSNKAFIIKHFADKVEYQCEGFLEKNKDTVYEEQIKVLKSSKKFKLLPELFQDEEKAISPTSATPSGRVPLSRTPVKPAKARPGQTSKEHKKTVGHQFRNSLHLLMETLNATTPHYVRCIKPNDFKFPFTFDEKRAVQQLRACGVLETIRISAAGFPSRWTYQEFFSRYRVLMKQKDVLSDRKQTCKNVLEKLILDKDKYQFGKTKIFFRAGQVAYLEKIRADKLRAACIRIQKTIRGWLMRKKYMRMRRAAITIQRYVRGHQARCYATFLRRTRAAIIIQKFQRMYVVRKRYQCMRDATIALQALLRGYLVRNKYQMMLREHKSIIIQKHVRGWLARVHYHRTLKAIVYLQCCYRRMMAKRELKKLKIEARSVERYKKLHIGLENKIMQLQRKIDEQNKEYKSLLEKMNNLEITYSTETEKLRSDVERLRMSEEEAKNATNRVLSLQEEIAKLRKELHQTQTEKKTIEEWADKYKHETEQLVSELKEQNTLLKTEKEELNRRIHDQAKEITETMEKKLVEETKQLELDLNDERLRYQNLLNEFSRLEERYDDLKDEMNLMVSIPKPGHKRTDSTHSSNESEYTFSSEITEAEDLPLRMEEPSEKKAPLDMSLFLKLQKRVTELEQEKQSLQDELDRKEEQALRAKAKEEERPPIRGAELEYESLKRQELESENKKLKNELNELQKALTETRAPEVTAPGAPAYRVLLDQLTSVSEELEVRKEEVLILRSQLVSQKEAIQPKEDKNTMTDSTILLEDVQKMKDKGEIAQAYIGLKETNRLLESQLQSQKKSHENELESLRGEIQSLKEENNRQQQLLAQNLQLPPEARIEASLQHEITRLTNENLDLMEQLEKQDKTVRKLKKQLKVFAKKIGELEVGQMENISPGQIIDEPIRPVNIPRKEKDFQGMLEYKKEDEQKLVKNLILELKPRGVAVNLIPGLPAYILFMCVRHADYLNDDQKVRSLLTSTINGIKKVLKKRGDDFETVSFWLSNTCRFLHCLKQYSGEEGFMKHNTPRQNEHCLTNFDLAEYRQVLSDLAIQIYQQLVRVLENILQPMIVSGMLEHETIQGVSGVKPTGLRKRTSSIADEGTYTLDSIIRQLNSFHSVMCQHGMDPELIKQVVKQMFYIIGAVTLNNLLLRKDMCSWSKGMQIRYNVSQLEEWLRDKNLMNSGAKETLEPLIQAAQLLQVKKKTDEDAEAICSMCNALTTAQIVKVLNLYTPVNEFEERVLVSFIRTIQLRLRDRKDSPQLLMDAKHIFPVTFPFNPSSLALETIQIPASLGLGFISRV

Chain of myosin V (S1) 6IQ construct (Q02440 whole entry, looked up): as above

Nc1ncnc2c1ncn2[C@@H]1O[C@H](COP(=O)(O)OP(=O)(O)O)[C@@H](O)[C@H]1O [ADP]
Kd [1]: ~1000 nM
Kd [2]: 2400 ± 1700 nM
